Test results taken from US12281080B2, “Quinoline-based compounds and methods of inhibiting CDK8/19” (University of South Carolina, priority 2018, dated 2025).

How the values were obtained:
Test in all cases: KINOMEscan scanMAX
AAK1 = AAK1 (Homo sapiens (Human), UniProt Q2M2I8); assay type: binding; details: 2000 nM; read-out: Percent Control
BIKE (BMP2K) = BIKE (BMP2K) (Homo sapiens (Human), UniProt Q9NSY1); assay type: binding; details: 2000 nM; read-out: Percent Control
MET(M1250T) = MET(M1250T) (Homo sapiens (Human), UniProt P08581, M1250T); assay type: binding; details: 2000 nM; read-out: Percent Control
PRKCH = PRKCH (Homo sapiens (Human), UniProt P24723); assay type: binding; details: 2000 nM; read-out: Percent Control
RET(V804L) = RET(V804L) (Homo sapiens (Human), UniProt P07949, V804L); assay type: binding; details: 2000 nM; read-out: Percent Control
PRKD1 = PRKD1 (Homo sapiens (Human), UniProt Q15139); assay type: binding; details: 2000 nM; read-out: Percent Control
STK35 = STK35 (Homo sapiens (Human), UniProt Q8TDR2); assay type: binding; details: 2000 nM; read-out: Percent Control
WNK3 = WNK3 (Homo sapiens (Human), UniProt Q9BYP7); assay type: binding; details: 2000 nM; read-out: Percent Control
MYLK = MYLK (Homo sapiens (Human), UniProt Q15746); assay type: binding; details: 2000 nM; read-out: Percent Control
WNK4 = WNK4 (Homo sapiens (Human), UniProt Q96J92); assay type: binding; details: 2000 nM; read-out: Percent Control
MKNK1 = MKNK1 (Homo sapiens (Human), UniProt Q9BUB5); assay type: binding; details: 2000 nM; read-out: Percent Control
ZAK = ZAK (Homo sapiens (Human), UniProt Q9NYL2); assay type: binding; details: 2000 nM; read-out: Percent Control
[1] = molecular target: JAK3(JH1domain-catalytic) (Homo sapiens (Human), UniProt P52333); assay type: binding; details: 2000 nM; read-out: Percent Control
IKK-beta (IKBKB) = IKK-beta (IKBKB) (Homo sapiens (Human), UniProt O14920); assay type: binding; details: 2000 nM; read-out: Percent Control
RIOK2 = RIOK2 (Homo sapiens (Human), UniProt Q9BVS4); assay type: binding; details: 2000 nM; read-out: Percent Control
MEK6 (MAP2K6) = MEK6 (MAP2K6) (Homo sapiens (Human), UniProt P52564); assay type: binding; details: 2000 nM; read-out: Percent Control
PIK3CD = PIK3CD (Homo sapiens (Human), UniProt O00329); assay type: binding; details: 2000 nM; read-out: Percent Control
LRRK2 = LRRK2 (Homo sapiens (Human), UniProt Q5S007); assay type: binding; details: 2000 nM; read-out: Percent Control
TNIK = TNIK (Homo sapiens (Human), UniProt Q9UKE5); assay type: binding; details: 2000 nM; read-out: Percent Control
EPHA3 = EPHA3 (Homo sapiens (Human), UniProt P29320); assay type: binding; details: 2000 nM; read-out: Percent Control
CDK3 = CDK3 (Homo sapiens (Human), UniProt Q00526); assay type: binding; details: 2000 nM; read-out: Percent Control
MST1 (STK4) = MST1 (STK4) (Homo sapiens (Human), UniProt Q13043); assay type: binding; details: 2000 nM; read-out: Percent Control
ZAP70 = ZAP70 (Homo sapiens (Human), UniProt P43403); assay type: binding; details: 2000 nM; read-out: Percent Control
NEK4 = NEK4 (Homo sapiens (Human), UniProt P51957); assay type: binding; details: 2000 nM; read-out: Percent Control
EPHB1 = EPHB1 (Homo sapiens (Human), UniProt P54762); assay type: binding; details: 2000 nM; read-out: Percent Control
CAMK2B = CAMK2B (Homo sapiens (Human), UniProt Q13554); assay type: binding; details: 2000 nM; read-out: Percent Control
CDK2 = CDK2 (Homo sapiens (Human), UniProt P24941); assay type: binding; details: 2000 nM; read-out: Percent Control
CDK4 = CDK4 (Homo sapiens (Human), UniProt P11802); assay type: binding; details: 2000 nM; read-out: Percent Control
SgK110 = SgK110 (Homo sapiens (Human), UniProt P0C264); assay type: binding; details: 2000 nM; read-out: Percent Control
[2] = molecular target: EGFR(L747-E749del, A750P) (Homo sapiens (Human), UniProt P00533, A750P/DEL747-749); assay type: binding; details: 2000 nM; read-out: Percent Control
FRK = FRK (Homo sapiens (Human), UniProt P42685); assay type: binding; details: 2000 nM; read-out: Percent Control
LCK = LCK (Homo sapiens (Human), UniProt P06239); assay type: binding; details: 2000 nM; read-out: Percent Control
VPS34 (PIK3C3) = VPS34 (PIK3C3) (Homo sapiens (Human), UniProt Q8NEB9); assay type: binding; details: 2000 nM; read-out: Percent Control
CDC2L5 (CDK13) = CDC2L5 (CDK13) (Homo sapiens (Human), UniProt Q14004); assay type: binding; details: 2000 nM; read-out: Percent Control
PRKX = PRKX (Homo sapiens (Human), UniProt P51817); assay type: binding; details: 2000 nM; read-out: Percent Control
YSK1 (STK25) = YSK1 (STK25) (Homo sapiens (Human), UniProt O00506); assay type: binding; details: 2000 nM; read-out: Percent Control
FLT3(ITD) = assay type: binding, human; details: 2000 nM
MAP3K3 = MAP3K3 (Homo sapiens (Human), UniProt Q99759); assay type: binding; details: 2000 nM; read-out: Percent Control
EPHB3 = EPHB3 (Homo sapiens (Human), UniProt P54753); assay type: binding; details: 2000 nM; read-out: Percent Control
EPHB6 = EPHB6 (Homo sapiens (Human), UniProt O15197); assay type: binding; details: 2000 nM; read-out: Percent Control

Chain of PIK3CD (O00329 whole entry): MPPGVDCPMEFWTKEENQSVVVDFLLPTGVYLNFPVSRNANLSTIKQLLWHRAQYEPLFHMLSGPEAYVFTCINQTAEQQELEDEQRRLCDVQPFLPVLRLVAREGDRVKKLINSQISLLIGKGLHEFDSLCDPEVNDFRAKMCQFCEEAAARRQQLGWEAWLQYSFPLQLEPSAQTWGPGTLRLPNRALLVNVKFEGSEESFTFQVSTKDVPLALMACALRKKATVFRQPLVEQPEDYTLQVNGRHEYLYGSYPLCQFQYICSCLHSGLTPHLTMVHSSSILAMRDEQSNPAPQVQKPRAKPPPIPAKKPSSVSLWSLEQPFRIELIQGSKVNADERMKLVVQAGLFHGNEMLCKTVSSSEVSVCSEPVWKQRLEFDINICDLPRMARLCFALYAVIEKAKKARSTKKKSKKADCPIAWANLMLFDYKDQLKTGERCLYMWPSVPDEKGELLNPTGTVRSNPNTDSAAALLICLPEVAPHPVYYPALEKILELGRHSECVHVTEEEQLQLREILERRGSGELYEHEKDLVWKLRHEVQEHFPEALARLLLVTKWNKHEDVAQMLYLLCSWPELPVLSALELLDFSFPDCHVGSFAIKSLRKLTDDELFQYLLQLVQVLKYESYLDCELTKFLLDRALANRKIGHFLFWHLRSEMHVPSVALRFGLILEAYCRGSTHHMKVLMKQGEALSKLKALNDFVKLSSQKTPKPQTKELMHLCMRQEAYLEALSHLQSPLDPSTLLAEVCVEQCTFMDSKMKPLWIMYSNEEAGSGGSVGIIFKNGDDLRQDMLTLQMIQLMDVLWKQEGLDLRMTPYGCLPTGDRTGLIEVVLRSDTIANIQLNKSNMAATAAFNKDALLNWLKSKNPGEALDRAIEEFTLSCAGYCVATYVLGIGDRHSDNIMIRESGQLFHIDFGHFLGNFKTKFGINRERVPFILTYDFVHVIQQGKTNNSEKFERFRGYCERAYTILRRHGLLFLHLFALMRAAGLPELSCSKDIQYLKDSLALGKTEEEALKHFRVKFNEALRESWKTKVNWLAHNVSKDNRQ
Chain of WNK4 (Q96J92 whole entry): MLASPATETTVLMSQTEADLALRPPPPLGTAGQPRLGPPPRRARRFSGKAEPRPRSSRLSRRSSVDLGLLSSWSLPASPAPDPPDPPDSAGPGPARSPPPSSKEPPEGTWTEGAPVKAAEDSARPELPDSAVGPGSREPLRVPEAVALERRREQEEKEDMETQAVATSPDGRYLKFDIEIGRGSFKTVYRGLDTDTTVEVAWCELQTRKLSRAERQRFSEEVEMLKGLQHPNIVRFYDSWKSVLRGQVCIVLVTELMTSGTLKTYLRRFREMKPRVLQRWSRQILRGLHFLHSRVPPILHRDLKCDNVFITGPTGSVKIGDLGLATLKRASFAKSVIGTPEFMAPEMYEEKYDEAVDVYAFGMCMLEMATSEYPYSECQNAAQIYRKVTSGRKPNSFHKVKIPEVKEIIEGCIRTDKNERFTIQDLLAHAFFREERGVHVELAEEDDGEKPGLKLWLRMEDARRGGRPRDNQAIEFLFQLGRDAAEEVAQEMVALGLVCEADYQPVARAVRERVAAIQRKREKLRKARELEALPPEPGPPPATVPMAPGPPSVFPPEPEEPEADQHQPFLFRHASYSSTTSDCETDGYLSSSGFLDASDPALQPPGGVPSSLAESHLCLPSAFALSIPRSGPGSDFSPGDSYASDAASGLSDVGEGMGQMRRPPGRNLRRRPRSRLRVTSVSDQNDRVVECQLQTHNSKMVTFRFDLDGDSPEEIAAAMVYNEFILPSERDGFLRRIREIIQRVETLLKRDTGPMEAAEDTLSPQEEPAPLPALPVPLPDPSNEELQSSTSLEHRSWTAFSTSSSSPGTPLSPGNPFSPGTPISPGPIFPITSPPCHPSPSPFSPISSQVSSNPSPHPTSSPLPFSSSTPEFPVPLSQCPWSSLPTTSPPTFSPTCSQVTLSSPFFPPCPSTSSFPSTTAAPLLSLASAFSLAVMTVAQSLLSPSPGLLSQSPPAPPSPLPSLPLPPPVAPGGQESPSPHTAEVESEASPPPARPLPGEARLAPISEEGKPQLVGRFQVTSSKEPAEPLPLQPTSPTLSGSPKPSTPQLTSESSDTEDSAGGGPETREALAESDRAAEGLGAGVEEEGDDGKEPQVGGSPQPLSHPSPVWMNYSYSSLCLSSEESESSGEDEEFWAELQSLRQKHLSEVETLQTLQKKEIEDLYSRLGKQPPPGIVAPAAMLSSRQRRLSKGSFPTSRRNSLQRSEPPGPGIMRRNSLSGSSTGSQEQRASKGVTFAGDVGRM
Chain of LCK (P06239 whole entry): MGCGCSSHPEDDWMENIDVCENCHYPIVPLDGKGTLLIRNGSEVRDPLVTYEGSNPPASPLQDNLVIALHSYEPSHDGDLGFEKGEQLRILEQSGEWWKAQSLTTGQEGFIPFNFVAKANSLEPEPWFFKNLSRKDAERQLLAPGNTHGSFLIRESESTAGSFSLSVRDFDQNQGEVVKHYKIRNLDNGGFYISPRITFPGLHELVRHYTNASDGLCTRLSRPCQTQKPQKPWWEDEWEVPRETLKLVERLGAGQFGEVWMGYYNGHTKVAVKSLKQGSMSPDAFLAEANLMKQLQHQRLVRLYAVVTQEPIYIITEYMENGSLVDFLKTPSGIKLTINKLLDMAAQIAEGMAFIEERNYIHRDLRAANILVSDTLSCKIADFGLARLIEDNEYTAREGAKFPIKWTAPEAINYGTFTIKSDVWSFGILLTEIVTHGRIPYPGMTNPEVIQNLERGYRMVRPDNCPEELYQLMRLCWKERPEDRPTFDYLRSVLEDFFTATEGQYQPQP
Chain of CDK3 (Q00526 whole entry): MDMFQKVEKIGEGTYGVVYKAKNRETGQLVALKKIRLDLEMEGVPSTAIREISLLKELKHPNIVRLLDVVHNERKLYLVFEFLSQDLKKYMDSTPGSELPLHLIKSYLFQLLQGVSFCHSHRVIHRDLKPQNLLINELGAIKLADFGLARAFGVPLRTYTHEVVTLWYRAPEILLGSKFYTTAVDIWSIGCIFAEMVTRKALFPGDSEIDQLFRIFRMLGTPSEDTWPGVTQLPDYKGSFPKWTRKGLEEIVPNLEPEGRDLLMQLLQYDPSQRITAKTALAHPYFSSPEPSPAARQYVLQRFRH
Chain of CDC2L5 (CDK13) (Q14004 whole entry, looked up): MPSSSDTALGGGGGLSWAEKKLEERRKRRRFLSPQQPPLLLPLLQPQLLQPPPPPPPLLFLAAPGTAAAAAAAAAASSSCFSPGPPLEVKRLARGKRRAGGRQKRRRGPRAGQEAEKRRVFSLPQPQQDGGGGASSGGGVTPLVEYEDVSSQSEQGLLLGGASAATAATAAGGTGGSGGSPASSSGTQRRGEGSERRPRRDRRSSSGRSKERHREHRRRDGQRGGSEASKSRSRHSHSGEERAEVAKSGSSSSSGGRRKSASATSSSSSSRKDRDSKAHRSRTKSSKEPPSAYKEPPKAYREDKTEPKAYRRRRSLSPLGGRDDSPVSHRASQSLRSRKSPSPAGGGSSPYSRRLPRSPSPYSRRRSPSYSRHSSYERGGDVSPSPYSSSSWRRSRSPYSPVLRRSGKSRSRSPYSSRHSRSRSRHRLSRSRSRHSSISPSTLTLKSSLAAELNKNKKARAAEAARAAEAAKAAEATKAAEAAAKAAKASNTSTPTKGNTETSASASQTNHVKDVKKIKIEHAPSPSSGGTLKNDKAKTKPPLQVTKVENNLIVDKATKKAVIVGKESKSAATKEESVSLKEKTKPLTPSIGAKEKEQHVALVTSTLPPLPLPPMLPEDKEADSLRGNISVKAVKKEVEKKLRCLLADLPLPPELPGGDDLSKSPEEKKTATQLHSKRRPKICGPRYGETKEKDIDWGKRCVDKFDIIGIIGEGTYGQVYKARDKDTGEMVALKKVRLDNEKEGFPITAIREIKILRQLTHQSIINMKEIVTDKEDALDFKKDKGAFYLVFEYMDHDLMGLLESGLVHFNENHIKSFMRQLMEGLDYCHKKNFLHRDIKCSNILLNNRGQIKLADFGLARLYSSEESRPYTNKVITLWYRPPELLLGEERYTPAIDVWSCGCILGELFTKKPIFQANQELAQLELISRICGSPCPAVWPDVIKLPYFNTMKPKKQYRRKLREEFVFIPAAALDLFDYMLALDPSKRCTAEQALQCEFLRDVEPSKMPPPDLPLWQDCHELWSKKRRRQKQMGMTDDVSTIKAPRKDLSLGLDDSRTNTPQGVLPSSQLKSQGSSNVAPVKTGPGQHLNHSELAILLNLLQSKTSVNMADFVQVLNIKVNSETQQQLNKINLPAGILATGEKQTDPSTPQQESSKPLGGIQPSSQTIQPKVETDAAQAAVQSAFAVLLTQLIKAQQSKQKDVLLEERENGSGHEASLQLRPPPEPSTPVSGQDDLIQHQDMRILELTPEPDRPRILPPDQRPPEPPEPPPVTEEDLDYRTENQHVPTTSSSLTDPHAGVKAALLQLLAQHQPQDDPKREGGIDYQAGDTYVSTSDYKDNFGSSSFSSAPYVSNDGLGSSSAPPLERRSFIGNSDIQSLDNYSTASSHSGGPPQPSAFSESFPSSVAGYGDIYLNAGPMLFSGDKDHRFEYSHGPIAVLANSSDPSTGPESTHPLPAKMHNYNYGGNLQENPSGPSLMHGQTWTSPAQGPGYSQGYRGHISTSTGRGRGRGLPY
Chain of JAK3(JH1domain-catalytic) (P52333 822-1111): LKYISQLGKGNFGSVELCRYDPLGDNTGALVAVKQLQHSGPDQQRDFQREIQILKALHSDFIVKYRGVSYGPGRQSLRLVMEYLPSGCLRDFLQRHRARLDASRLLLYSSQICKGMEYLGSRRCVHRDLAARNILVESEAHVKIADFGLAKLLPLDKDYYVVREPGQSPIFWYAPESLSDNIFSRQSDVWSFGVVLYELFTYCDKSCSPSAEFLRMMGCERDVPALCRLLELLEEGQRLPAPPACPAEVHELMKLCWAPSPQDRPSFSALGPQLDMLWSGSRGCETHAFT

CN1CCN(C(=O)c2ccc3cc(CCNc4ccnc5ccc(C#N)cc45)ccc3c2)CC1 [compound 6148, 4-((2-(6-(4-methylpiperazine-1-carbonyl)naphthalen-2-yl)ethyl)amino)quinoline-6-carbonitrile]
remaining binding at 2 µM (AAK1): 84% | remaining binding at 2 µM (BIKE (BMP2K)): 97% | remaining binding at 2 µM (MET(M1250T)): 88% | remaining binding at 2 µM (PRKCH): 91% | remaining binding at 2 µM (RET(V804L)): 88% | remaining binding at 2 µM (PRKD1): 90% | remaining binding at 2 µM (STK35): 100% | remaining binding at 2 µM (WNK3): 75% | remaining binding at 2 µM (MYLK): 83% | remaining binding at 2 µM (WNK4): 69% | remaining binding at 2 µM (MKNK1): 72% | remaining binding at 2 µM (ZAK): 94% | remaining binding at 2 µM [1]: 65% | remaining binding at 2 µM (IKK-beta (IKBKB)): 76% | remaining binding at 2 µM (RIOK2): 64% | remaining binding at 2 µM (MEK6 (MAP2K6)): 80% | remaining binding at 2 µM (PIK3CD): 61% | remaining binding at 2 µM (LRRK2): 85% | remaining binding at 2 µM (TNIK): 89% | remaining binding at 2 µM (EPHA3): 100% | remaining binding at 2 µM (CDK3): 86% | remaining binding at 2 µM (MST1 (STK4)): 95% | remaining binding at 2 µM (ZAP70): 81% | remaining binding at 2 µM (NEK4): 60% | remaining binding at 2 µM (EPHB1): 92% | remaining binding at 2 µM (CAMK2B): 97% | remaining binding at 2 µM (CDK2): 95% | remaining binding at 2 µM (CDK4): 67% | remaining binding at 2 µM (SgK110): 91% | remaining binding at 2 µM [2]: 77% | remaining binding at 2 µM (FRK): 92% | remaining binding at 2 µM (LCK): 92% | remaining binding at 2 µM (VPS34 (PIK3C3)): 68% | remaining binding at 2 µM (CDC2L5 (CDK13)): 64% | remaining binding at 2 µM (PRKX): 100% | remaining binding at 2 µM (YSK1 (STK25)): 83% | Percent Control (FLT3(ITD)): 97% | remaining binding at 2 µM (MAP3K3): 83% | remaining binding at 2 µM (EPHB3): 81% | remaining binding at 2 µM (EPHB6): 86%
